Source: patent US9701685B2, “Spiropyrrolidines as MDM2 inhibitors” (HUDSON BIOPHARMA INC., priority 2014, dated 2017)

Experiments:
SJSA-1 = test: Cell proliferation inhibition (CCK-8) against SJSA-1; type: cell-based; conditions: Homo sapiens, SJSA-1, 120 h, SJSA-1 human osteosarcoma cells, 5 days
Method: Cellular data of selected compounds against SW480 and SJSA-1 was conducted according to the following protocol.
Cells in the logarithmic growth phase were seeded into 96-well plates (Corning, 3599; 180 μL/well; 3000 cells/well for both SW480 and SJSA-1 cell lines) and cultured in an incubator (Thermo, 3111) for 24 h. Cells were then treated in triplicate by adding 20 μL/well solution containing different concentrations of the tested compounds in 5% CO2 at 37° C. for 5 days. After that, cells were treated for additional 4 h by adding 10 μL/well Cell Counting Kit-8 (CCK-8; DojinDo, CK04) solution. Finally, the absorbance was read at 450 nm with a microplate reader spectra-MAX190 (Molecular Devices, Sunnyvale, Calif.). The IC50 value was determined with SofeMax Pro, a software equipped in this reader. The cell proliferation inhibition rate was calculated as: proliferation inhibition (%)=[1-(A450 treated/A450 control)]×100%.
All the tested compounds could be dissolved in DMSO at 10^−2 M (as stock solution). […] The compounds were diluted at 9 3-fold serial concentrations beginning at the initial concentration of 10 μM (i.e., the highest final concentration to treat the cells). The detailed drug dilution protocol is: Add 5 μL stock solution (10^−2 M) into 495 μL medium, transfer 125 μL of the resulting solution (100 μM) into 250 μL medium, and repeat this till the 9th resulting concentration of 15.2 nM. Pipet 20 μL of each drug dilution into cell plates.

GST-tag full length MDM2 = GST-tag full length MDM2 (Homo sapiens (Human), UniProt Q00987); test: MDM2-p53 TR-FRET Binding Assays; conditions: MDM2 / biotin p53 peptide
GST-tag full length MDM2, sequence (Q00987 whole entry): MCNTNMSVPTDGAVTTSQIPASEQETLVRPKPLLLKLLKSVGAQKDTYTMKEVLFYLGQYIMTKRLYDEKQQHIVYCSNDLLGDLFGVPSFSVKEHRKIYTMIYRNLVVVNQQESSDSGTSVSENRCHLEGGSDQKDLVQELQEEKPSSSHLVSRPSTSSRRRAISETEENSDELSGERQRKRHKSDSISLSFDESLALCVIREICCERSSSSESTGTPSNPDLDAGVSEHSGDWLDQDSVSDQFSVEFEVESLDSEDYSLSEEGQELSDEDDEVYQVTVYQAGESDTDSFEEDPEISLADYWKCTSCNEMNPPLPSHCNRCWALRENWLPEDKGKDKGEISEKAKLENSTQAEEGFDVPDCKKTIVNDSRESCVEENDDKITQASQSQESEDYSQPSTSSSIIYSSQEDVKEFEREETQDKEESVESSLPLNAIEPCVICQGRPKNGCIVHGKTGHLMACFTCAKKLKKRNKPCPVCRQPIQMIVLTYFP
Excerpt: MDM2-p53 TR-FRET Binding Assays
Examples are listed in the following.

SMILES: COc1cc(C(=O)O)ccc1NC(=O)[C@@H]1N[C@@H](C[C@H](C)C(F)(F)F)[C@@]2(C(=O)Nc3cc(Cl)ccc32)[C@H]1c1cccc(Cl)c1F [Example 65, 4-[[(2′R,3R,3′S,5′S)-6-chloro-3′-(3-chloro-2-fluoro-phenyl)-2-oxo-5′-[(2S)-3,3,3-trifluoro-2-methyl-propyl]spiro[indoline-3,4′-pyrrolidine]-2′-carbonyl]amino]-3-methoxy-benzoic acid]
- IC50 (SJSA-1): ≤ 20 nM
- IC50 (GST-tag full length MDM2): ≤ 3.6 nM
